Laboratory results taken from patent US20260215425A1, “NITRIFICATION INHIBITORS” (The University of Melbourne, priority 2022, published 2026).

Legend:
N. europaea = test: standard nitrification inhibition assay (NO2- production, Griess); format: cell-based, Nitrosomonas europaea; conditions: [NH4+]=3 mM, [inhibitor]=0.3 mM (10 mol %), pH 7.5, 30° C., 60 min
Protocol: (§1) Cells of N. multiformis and N. europaea were cultivated to the mid-exponential growth phase (OD600=0.1, [NO2^−] approximately 800 μM) and harvested by filtration onto 0.2 μm membrane filters (Mixed Cellulose Ester (MCE), Sigma Aldrich). The cells were washed with 2×100 mL of 0.1 M sodium phosphate buffer (NaPB), containing 0.2 mM MgSO4 at pH 7.5. The cells were washed from the filter paper by transferring it to a sterile 50 mL tube and resuspending in NaPB (15 mL), followed by 5 s of vortexing (Ratek, Australia) and 3 s of sonication (Vevor, Australia). […] Experiments were performed in triplicate.
(§2) In a deep 96-well plate (2 mL capacity), 980 μL of the bacterial inoculum (OD600=0.03) was added to the inhibitor (10 μL, 30 mmol L^−1 in Milli-Q water), the solutions were mixed thoroughly and pre-incubated in the dark for 5 minutes at 100 rpm and 30° C. (NH4)2SO4 (10 μL, 150 mM, from a prepared sterile solution containing 19.8 g L^−1 (NH4)2SO4 in Milli-Q water) was then added using a multi-channel pipette. The plate was covered with a with an O2 permeable membrane to ensure aeration (Breathe-Easy® sealing membrane, Sigma Aldrich) and incubated in a temperature-regulated rotary incubator (Ratek, Australia) in the dark for 60 minutes at 30° C. and 100 rpm. An aliquot of the reaction solution ([…]) was transferred to a 96-well spectrophotometric plate to which 50 µL of Griess reagent was added. The colour was allowed to develop for 15 minutes at room temperature, and the absorbance was measured at 540 nm. Each assay was accompanied by control treatments to determine the 0% and 100% NO2 signal. The percentage inhibition was calculated according to eqn. 1 from the NO2 production of the cells in NaPB (i) without additive (‘untreated cells’: 0% signal), (ii) with [NH4^+]=3 mM (‘uninhibited’ cells: 100% signal) and (iii) with [NH4^+]=3 mM and [inhibitor]=0.3 mM and 0.03 mM (10 mol % and 1 mol % of [NH4^+], ‘inhibited cells’). Experiments were performed in triplicate.

N. multiformis = test: as above; format: cell-based, Nitrosospira multiformis; conditions: [NH4+]=3 mM, [inhibitor]=0.3 mM (10 mol %), pH 7.5, 30° C., 60 min
Protocol: as §1, §2

[1] = system: N. europaea and N. multiformis; test: activity recovery assay (binding studies); format: cell-based; conditions: [inhibitor]=1.5 mM, 30 min, then washed and re-incubated with (NH4)2SO4
Protocol: Cells were harvested using the ‘standard cell harvesting protocol’. The bacteria solution was adjusted to an OD600=0.8 (100 μg/L protein) and 980 μL aliquots were transferred to 1.5 mL centrifuge tubes (Eppendorf®, polypropylene). 10 μL of the inhibitor solution (150 mM in DMSO) was added and pre-equilibrated for 5 min; 10 μL of aqueous 150 mM (NH4)2SO4 (final concentration in tube=3 mM) was added by via multichannel pipette to ensure simultaneous addition in each tube. The tubes were incubated in a temperature-regulated rotary incubator (Ratek, Australia) for 30 min at 30° C. at 100 rpm in the dark. After 30 minutes, a 50 μL aliquot was transferred to a 96-well plate (Greiner Cellstar®, polystyrene), 50 μL of Griess reagent was added and the mixture incubated for 15 minutes. The absorbance was measured photometrically (Clariostar® BMG Labtech, Australia) at 540 nm. The cells were washed repeatedly (3×) by periodic centrifuging (Boeco, Germany; 10.000 rpm, 10 min) and resuspending the pellet in 1 mL NaPB. After the final centrifuging step, the pellet was resuspended in 990 μL NaPB and re-incubated with (NH4)2SO4 (10 μL of an aqueous 150 mM solution), and the NO2 concentration was measured under the previously described conditions. Each assay was accompanied by control treatments to determine the 0% and 100% NO2 signal. […]

C#CCn1cc(C)nn1 [Compound 4-MPT, 4-Methyl-1-(prop-2-yn-1yl)-1H-1,2,3-triazole]
% Inhibition NE (N. europaea): 77% | % Inhibition NM (N. multiformis): 75% | recovery of activity of cells after three washing steps [1]: could not be recovered
